# Reference: PubChem BioAssay AID463206 (Broad Institute, 2010)
# Active and inactive are the calls of the source.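 The calls were made as follows: active = caspase luminescence falls with dose and the half-maximal concentration AC50 from the fitted curve is at or below a set limit; inconclusive = flat fit at 30 to 70% signal loss, or invalid fit; inactive = AC50 above the limit, or signal rises instead.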
# System: INS-1E cytokine-induced caspase-3/7, Caspase-Glo luminescence, 48 h
# Assay: suppression of cytokine-driven beta-cell apoptosis – INS-1E rat cells, luminescence, orthogonal assay for beta-cell apoptosis protection project, dose response (AID 463206)
row,Compound,AC50
1,COc1ccc(N=Nc2ccc(O)c3ncccc23)cc1,> 12 µM (inactive)
2,O=[N+]([O-])c1ccc(-c2nc(C(Cl)Cl)c3ccccc3n2)cc1,0.62 µM
3,CC1(C)C(C=C(Cl)Cl)C1C(=O)Nc1ccc([N+](=O)[O-])cc1 (stereo not drawn),> 26 µM (inactive)
4,CCCCCc1cc(=O)oc2c(C(CCN3CCCC(C)C3)c3ccc(OC)cc3)c(OC)cc(OC)c12 (stereo not drawn),> 26 µM (inactive)
5,COc1ccc(CN2CCN(CCSc3ccc(C)cc3)CC2)c(OC)c1OC,> 26 µM (inactive)
6,CCN(CC)S(=O)(=O)c1ccc(N/N=C/c2cc(OC)ccc2O)nc1,> 26 µM (inactive)
7,Cc1ccc(S(=O)(=O)/N=C2\C=C(Nc3ccc(O)cc3)C(=O)c3ccccc32)cc1,> 26 µM (inactive)
8,CN(C)CCCNc1c2ccccc2nc2ccccc12,> 26 µM (inactive)
9,CC(C)(C)C(=O)NC(=S)NNC(=O)c1ccc(-c2ccccc2)cc1,> 26 µM (inactive)
10,CCOC(=O)c1ccc(NC(=O)NCc2cccnc2)cc1,> 26 µM (inactive)
11,O=C(Nc1ccc(C(=O)Nc2ccccc2Cl)cc1)c1cccnc1,> 26 µM (inactive)
12,Cc1ccc(-c2cn(-c3ccc(OC(F)F)cc3)c3[n+]2CCCCC3)cc1,> 26 µM (inactive)
13,COc1cccc(CNCCc2c[nH]c3ccccc23)c1OCc1ccccc1F,> 26 µM (inactive)
14,COC(=O)c1ccc(COc2ccccc2/C=C(\C#N)C(=O)Nc2c(C)cccc2C)cc1,> 26 µM (inactive)
15,CC(=O)N1c2ccc(S(=O)(=O)N3CCC(C(=O)N4CCN(c5cccc(C(F)(F)F)c5)CC4)CC3)cc2CC1C (stereo not drawn),> 26 µM (inactive)
16,CC(C)c1ccc2c(c1)C(N1CCNCC1)Cc1ccc(F)cc1S2 (stereo not drawn),> 26 µM (inactive)
17,O=C(N/N=C/c1ccc(O)cc1O)c1ccc(NC(=O)C2CCCCC2)cc1,> 26 µM (inactive)
18,O=C(O)c1ccc(/C=C2\SC(=S)N(Nc3ccccc3)C2=O)cc1,> 26 µM (inactive)
19,CCN(CC)c1ccc(/C=N/NC(=O)CCC(=O)NCc2ccccc2)c(O)c1,> 26 µM (inactive)
20,CCC(=O)NC(c1ccccc1OC)c1ccc2cccnc2c1O (stereo not drawn),> 26 µM (inactive)
21,O=C(NC(NC(=S)Nc1ccc(Cl)cc1Cl)C(Cl)(Cl)Cl)c1cccc([N+](=O)[O-])c1 (stereo not drawn),> 26 µM (inactive)
22,Nc1ccc(Nc2ccccc2)cc1,17.7 µM
23,COc1ccc(CCNc2ncnc3sccc23)cc1OC,> 26 µM (inactive)
24,CCCCCCCCCCOC(=O)C[N+](C)(C)C/C=C(/C)Cl,> 26 µM (inactive)
25,COc1cnc(-c2ccccn2)nc1N(C)C,> 26 µM (inactive)

row,Compound,AC50
1,CCCCCCc1cc2cc(-c3nnc(-c4ccccc4)o3)c(=O)oc2cc1O,> 26 µM (inactive)
2,CCOC(=O)C1=C(CCc2ccccc2)NC(=O)NC1c1ccc2ccccc2c1 (stereo not drawn),> 26 µM (inactive)
3,N#Cc1c(Cl)nsc1NC(=O)c1ccccc1,> 26 µM (inactive)
4,CC(=O)c1cccc(NS(=O)(=O)c2ccc(N/C=C/C(=O)c3ccc(F)cc3)cc2)c1,> 26 µM (inactive)
5,Clc1ccc(CSc2ccc(-c3ccccn3)nn2)cc1,> 26 µM (inactive)
6,COc1cc(NC(=O)COc2cc(O)c3c(c2)OC(C)(C)CC3=O)cc(OC)c1OC,> 26 µM (inactive)
7,C/C(=N/NC(=O)c1cccs1)c1c(C)[nH]n(-c2nc3ccccc3s2)c1=O,> 26 µM (inactive)
8,CC1CCN(c2ccc(NC(=O)c3ccc([N+](=O)[O-])o3)cc2)CC1,> 26 µM (inactive)
9,Brc1ccc(CN2CCN(Cc3c[nH]c4ccccc34)CC2)cc1,> 26 µM (inactive)
10,CN(Cc1cccnc1)C(=O)c1cc(COc2ccc3ncccc3c2)on1,> 26 µM (inactive)
11,C/C(=N\Nc1nc(-c2ccccn2)nc2ccccc12)c1ccc(F)cc1,> 26 µM (inactive)
12,COc1ncnc(OC)c1S(=O)(=O)Nc1ccc(C(F)(F)F)cc1,> 26 µM (inactive)
13,O=C(Nc1ccc(Cl)c(Cl)c1)Nc1nnc(CC2=CCCCC2)s1,> 26 µM (inactive)
14,CC(=O)N1CCc2cc(S(=O)(=O)NCCC3=CCCCC3)ccc21,> 12 µM (inactive)
15,O=C(Nc1nc(-c2ccccn2)cs1)c1ccc(F)c(S(=O)(=O)N2CCOCC2)c1,> 26 µM (inactive)
16,CC(C)(C)c1nnc(N/N=C/c2cc(Br)ccc2O)n(N)c1=O,> 26 µM (inactive)
17,O=C(Nc1ccc(Cl)c(Cl)c1)N1CCSC1c1ccco1 (stereo not drawn),> 26 µM (inactive)
18,CCCCCCCNC1=CC(=O)CC(c2ccccc2)C1 (stereo not drawn),> 12 µM (inactive)
19,Cc1nc(C)c(-c2csc(NCCc3ccccc3)n2)s1,> 26 µM (inactive)
20,Cc1cc(C)cc(Oc2cc(NC(=O)c3cn(C)nc3C)cc([N+](=O)[O-])c2)c1,> 26 µM (inactive)
21,COc1ccc(-c2ccc3c(c2)S(=O)(=O)c2cccc(C(=O)NCCOc4ccccc4Cl)c2C3=O)cc1OC,> 26 µM (inactive)
22,Cc1cccnc1Nc1nc(-c2ccccn2)cs1,> 26 µM (inactive)
23,N#CCC(=O)N/N=C/c1cc(-c2ccccc2)n(-c2ccc(Cl)cc2)c1-c1ccccc1,> 26 µM (inactive)
24,CN(C)CCOc1ccc(-c2c(-c3ccccc3)sc3ccccc23)cc1,> 26 µM (inactive)
25,Cc1ccc(NC(=O)c2cc(S(=O)(=O)NCCC3=CCCCC3)ccc2F)cc1,> 26 µM (inactive)

row,Compound,AC50
1,O=C(N/N=C/c1ccc(O)cc1O)/C(=C/c1ccccc1)CCO,> 26 µM (inactive)
2,Cc1occc1C(=O)N/N=C/c1ccc2c(c1)OCO2,> 26 µM (inactive)
3,Clc1ccc2c(N/N=C/c3cccc(Br)c3)ccnc2c1,> 26 µM (inactive)
4,COc1cccc(/C=N/Nc2ccc([N+](=O)[O-])cn2)c1O,> 26 µM (inactive)
5,CCN(CC)c1ccc(/C=N/NC(=O)c2ccco2)c(O)c1,> 26 µM (inactive)
6,O=C(c1ccccc1)C(CN1CCCC1)c1ccccc1 (stereo not drawn),> 26 µM (inactive)
7,COc1ccc(OC)c2c1C(=O)C(Cl)=C(Cl)C2=O,> 26 µM (inactive)
8,O=C(N/N=C/c1cc(Br)cc(Cl)c1O)c1ccc2c(c1)OCO2,> 26 µM (inactive)
9,COc1ccc(Cn2c(SCc3ccccc3C)nc3cc(OC)c(OC)cc3c2=N)cc1,> 26 µM (inactive)
10,CC(C)(C)n1nnnc1C(c1ccc(F)cc1)N(Cc1ccc(F)cc1)Cc1ccco1 (stereo not drawn),> 26 µM (inactive)
11,CCN(CC)c1ccc(N=Cc2ccc([N+](=O)[O-])o2)cc1,> 26 µM (inactive)
12,Cc1ccc(-c2c[n+]3c(n2-c2ccccc2)SCC3)cc1,> 26 µM (inactive)
13,CCOC(=O)c1ccc(NC(=O)c2nc(S(=O)(=O)Cc3ccccc3)ncc2Cl)cc1,> 26 µM (inactive)
14,O=C(N/N=C(\c1ccccc1)c1cccnc1)c1cccc(F)c1,> 26 µM (inactive)
15,Cc1nc2c3cc(F)ccc3n(Cc3ccccc3)c2s1,> 26 µM (inactive)
16,Oc1[nH]c2ccc(Br)cc2c1N=NC(=S)N1CCOCC1,> 26 µM (inactive)
17,Cc1nnsc1-c1onc(C)c1C(=O)Nc1cc(Cl)cc(Cl)c1,> 26 µM (inactive)
18,Cc1ncc(CO)c(/C=N/Nc2ccc(C(F)(F)F)cn2)c1O,> 26 µM (inactive)
19,COc1cc(/C=N/N=C(N)N)ccc1OCc1ccc(Cl)cc1,> 26 µM (inactive)
20,CC(=O)C1=NN(c2ccccc2)C(c2cccs2)N1c1ccc(N(C)C)cc1 (stereo not drawn),> 26 µM (inactive)
21,O=C(Nc1ccc(Cl)cc1)/C(=C/c1cccc(O)c1)c1nc2ccccc2s1,> 26 µM (inactive)
22,COc1cccc(/C=N/NC(=O)CN2CC(c3ccccc3)CC2=O)c1O (stereo not drawn),> 26 µM (inactive)
23,Cc1cccc(C2(c3cccc(C)c3)OC(=O)c3ccccc32)c1,> 26 µM (inactive)
24,COc1ccccc1N1CCN(Cc2cc(Br)c(O)c3ncccc23)CC1,> 12 µM (inactive)
25,Cc1ccc(NC(=O)Cn2c(O)c(N=NC(=O)c3cc4ccccc4cc3O)c3ccccc32)cc1,> 26 µM (inactive)

row,Compound,AC50
1,Cc1ccc(NC2=CC(=O)C(=O)c3ccccc32)cc1,> 26 µM (inactive)
2,CC1=NN(c2nc3ccccc3[nH]2)C(=O)/C1=C/N(C)C,> 26 µM (inactive)
3,Cc1ccc(C(=O)N/C(=C\c2ccc(-c3ccccc3[N+](=O)[O-])o2)C(=O)NCCCN2CCOCC2)cc1,> 26 µM (inactive)
4,CC(C)(C)C1C/C(=C/c2ccccn2)C(=O)/C(=C/c2ccccn2)C1 (stereo not drawn),> 26 µM (inactive)
5,COc1cc(/C=C(/C(=O)c2cccs2)c2nc3ccccc3[nH]2)ccc1O,> 26 µM (inactive)
6,CCN1CCN(c2ccc(S(=O)(=O)N3CCCCC3)cc2NC(=O)c2ccc([N+](=O)[O-])s2)CC1,> 26 µM (inactive)
7,CCN(CC)CCNC(=O)c1ccc(NC(=O)c2cn(-c3ccccc3)nc2-c2cccs2)cc1,18.2 µM
8,O=C(CN1CCCc2ccccc21)N/N=C/c1ccccc1O,> 26 µM (inactive)
9,COc1ccc(OC)c(NC(=O)CN(Cc2ccc(F)cc2)C2CCCCC2)c1,> 26 µM (inactive)
10,COc1ccc(Cn2cc3c(-c4ccc(F)cc4)nnc-3c3cc(OC)c(OC)cc32)cc1,12.9 µM
11,CC(C)(C)Nc1nc(-c2ccccn2)nc2ccccc12,> 26 µM (inactive)
12,Cc1ccc(S(=O)(=O)CC2CSc3nc4ccccc4n32)cc1 (stereo not drawn),> 12 µM (inactive)
13,CC(C)N=c1cc2n(-c3ccc(Cl)cc3)c3ccccc3nc-2cc1Nc1ccc(Cl)cc1,> 26 µM (inactive)
14,O=C(Nc1nc(-c2ccccn2)cs1)c1ccc(Br)s1,> 26 µM (inactive)
15,CC(=O)NC(c1cccc([N+](=O)[O-])c1)c1ccc2cccnc2c1O (stereo not drawn),> 26 µM (inactive)
16,COc1ccc(CCNc2ncnc3sc(C)cc23)cc1OC,> 26 µM (inactive)
17,COc1ccc(C(C)NCCC(c2ccc(OC(C)C)cc2)c2ccccc2OC)cc1 (stereo not drawn),> 26 µM (inactive)
18,N#C/C(=C/c1ccc(N2CCCCCC2)o1)c1ccc(Cl)cc1,> 26 µM (inactive)
19,CC(=O)c1cccc(NS(=O)(=O)c2ccc(N/C=C\C(=O)c3ccc(F)cc3)cc2)c1,> 26 µM (inactive)
20,C=CCn1cc(/C=C/c2cc[n+](C)cc2)c2ccccc21,> 26 µM (inactive)
21,Cc1cc(C(=O)C(C)OC(=O)c2ccc(NC(=O)CC#N)cc2)c(C)n1-c1ccc(OC(F)F)cc1 (stereo not drawn),> 26 µM (inactive)
22,CCN(CC)c1ccc2nc3ccccc3[n+](CC)c2c1,> 26 µM (inactive)
23,CC(=O)c1c(C)n(CC(=O)NCc2ccco2)c2ccccc12,> 26 µM (inactive)
